From patent US9434711B2 (Janssen Pharmaceutica, NV, priority 2007, dated 2016) come the findings set out here.

The experiment addresses canine TRPM8 (Canis lupus familiaris, UniProt Q1A7N1). The experiment can be described thus: In Vitro Canine TRPM8 Functional Assay (Ca2+ fluorescence, icilin activation). It counts as cell-based. The conditions noted are these: for IC50: read-out: IC50; for inhibition at 0.5 µM: read-out: % Inh @ 0.5. In a few lines: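 Cells (HEK293, stable canine TRPM8) are seeded 24 h before assay. They are then dye-loaded with Calcium 3 at 37 °C followed by room temperature. Compound is added and monitored for 5 min, after which icilin (~80% maximal response) is added.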

The mark [1] stands for this setting: HEK293 cells stably expressing canine TRPM8, icilin activation, eight-point dose-response.
Setting [2] is: compound at 0.2 μM, canine TRPM8, icilin activation, read-out: % Inh @ 0.2.
Where [3] appears, read: compound at 0.5 μM, canine TRPM8, icilin activation.
The mark [4] stands for this setting: compound at 0.2 μM, canine TRPM8, icilin activation.

Like-named read-outs stand apart in the source and are kept apart here.

Sequence of canine TRPM8 (Q1A7N1 1-1104): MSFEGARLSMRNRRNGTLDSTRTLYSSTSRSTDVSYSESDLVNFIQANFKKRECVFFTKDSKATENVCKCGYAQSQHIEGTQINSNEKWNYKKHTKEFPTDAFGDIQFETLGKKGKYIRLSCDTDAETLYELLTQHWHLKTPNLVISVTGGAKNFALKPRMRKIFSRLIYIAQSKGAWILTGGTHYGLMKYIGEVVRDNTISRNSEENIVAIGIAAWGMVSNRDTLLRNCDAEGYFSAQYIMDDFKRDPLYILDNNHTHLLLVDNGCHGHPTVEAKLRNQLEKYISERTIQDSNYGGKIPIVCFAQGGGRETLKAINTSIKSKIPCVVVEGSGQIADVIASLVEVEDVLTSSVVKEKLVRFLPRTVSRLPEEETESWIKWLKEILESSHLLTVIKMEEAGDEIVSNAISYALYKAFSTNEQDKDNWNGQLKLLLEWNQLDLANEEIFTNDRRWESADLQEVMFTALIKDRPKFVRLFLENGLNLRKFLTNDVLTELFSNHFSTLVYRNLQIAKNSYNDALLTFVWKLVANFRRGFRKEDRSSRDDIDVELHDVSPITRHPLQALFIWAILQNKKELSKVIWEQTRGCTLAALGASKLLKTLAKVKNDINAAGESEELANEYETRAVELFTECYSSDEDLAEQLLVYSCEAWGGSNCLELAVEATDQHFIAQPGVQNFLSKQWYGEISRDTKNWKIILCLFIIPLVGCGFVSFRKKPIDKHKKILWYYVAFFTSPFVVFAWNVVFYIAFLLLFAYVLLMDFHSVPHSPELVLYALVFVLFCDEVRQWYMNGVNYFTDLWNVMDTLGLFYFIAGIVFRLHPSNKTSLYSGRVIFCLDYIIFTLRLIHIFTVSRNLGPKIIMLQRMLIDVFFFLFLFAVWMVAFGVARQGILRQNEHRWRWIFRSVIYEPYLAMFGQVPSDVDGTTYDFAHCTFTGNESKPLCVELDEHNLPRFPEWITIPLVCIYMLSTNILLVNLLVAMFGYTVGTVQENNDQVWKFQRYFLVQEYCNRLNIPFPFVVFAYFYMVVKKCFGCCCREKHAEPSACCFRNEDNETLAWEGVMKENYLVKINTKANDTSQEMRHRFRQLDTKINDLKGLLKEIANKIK

As for `Cc1c(N(Cc2cc(C(F)(F)F)ccc2F)S(=O)(=O)c2ccc(C(=O)O)cc2)sc2ccccc12` [Compound 519, N-(3-Methyl-benzo[b]thiophen-2-yl)-N-(2-fluoro-5-trifluoromethyl-benzyl)-4-carboxy-benzenesulfonamide], the IC50 (usually the concentration needed to halve the response being measured) under setting [1] amounted to 6 nM. The inhibition at 0.2 µM under setting [2] amounted to 102%.
Turning to `Cc1c(N(Cc2cccc(C(F)(F)F)c2)S(=O)(=O)c2ccc(C(=O)O)cc2)sc2ccccc12` [Compound 491, N-(3-Methyl-benzo[b]thiophen-2-yl)-N-(3-trifluoromethyl-benzyl)-4-carboxy-benzenesulfonamide], the IC50 under setting [1] amounted to 1 nM. Further, the inhibition at 0.2 µM under setting [2] was 101%.
For `COC(=O)[C@H](C)CN(c1sc2ccccc2c1C)S(=O)(=O)c1ccccc1` [Compound 93, N-(3-Methyl-benzo[b]thiophen-2-yl)-N-[2(R)-methyl-2-carbomethoxy-ethyl]-benzenesulfonamide], in that order: 11 nM and 98%.
In the case of `O=C1CCCN1CCN(c1sc2ccccc2c1Cl)S(=O)(=O)c1ccccc1` [Compound 82, N-(3-Chloro-benzo[b]thiophen-2-yl)-N-[2-(2-oxo-pyrrolidin-1-yl)-ethyl]-benzenesulfonamide], under setting [1], the IC50 was found to be 319 nM. Moreover, the inhibition at 0.5 µM under setting [3] is 87%.
For `CS(=O)(=O)CS(=O)(=O)N(Cc1ccc(F)c(C(F)(F)F)c1)c1cc2ccccc2s1` [Compound 362, N-(Benzo[b]thiophen-2-yl)-N-(4-fluoro-3-trifluoromethyl-benzyl)-C-methanesulfonyl-methanesulfonamide], under setting [2], the inhibition at 0.2 µM amounted to 67%.
Turning to `N#Cc1cccc(S(=O)(=O)N(Cc2ccc(F)c(C(F)(F)F)c2)c2cc3ccccc3s2)c1` [Compound 370, N-(Benzo[b]thiophen-2-yl)-N-(4-fluoro-3-trifluoromethyl-benzyl)-3-cyano-benzenesulfonamide], under setting [2], the inhibition at 0.2 µM was 29%.
`NC(=O)c1ccc(S(=O)(=O)N(Cc2ccc(F)c(C(F)(F)F)c2)c2cc3ccccc3s2)cc1` [Compound 413, N-(Benzo[b]thiophen-2-yl)-N-(4-fluoro-3-trifluoromethyl-benzyl)-4-carboxamide-benzenesulfonamide]: the half-inhibitory concentration (IC50) under setting [1] stood at 46 nM. In addition, the “% Inh @ 0.2 (μM)” value under setting [4] is 93%.
Turning to `CCS(=O)(=O)N(Cc1ccc(F)c(C(F)(F)F)c1)c1sc2ccccc2c1-c1ccc(F)cc1` [Compound 201, N-[3-(4-Fluoro-phenyl)-benzo[b]thiophen-2-yl]-N-(4-fluoro-3-trifluoromethyl-benzyl)-ethanesulfonamide], the inhibition at 0.2 µM under setting [2] amounted to 14%.
Take `Cc1c(N(CCCCC(F)(F)F)S(=O)(=O)c2ccc(N3CCOCC3)cc2)sc2ccccc12` [Compound 750, N-(3-Methyl-benzo[b]thiophen-2-yl)-N-(5,5,5-trifluoro-pentyl)-4-morpholino-benzenesulfonamide]: the IC50 under setting [1] was found to be 9.2 nM. For the same compound, the inhibition at 0.2 µM under setting [2] amounted to 101%.
On to `CC(C)CN(c1sc2ccccc2c1Br)S(=O)(=O)c1ccc(C(=O)O)cc1` [Compound 452, N-(3-Bromo-benzo[b]thiophen-2-yl)-N-(isobutyl)-4-carboxy-benzenesulfonamide], for which the IC50 under setting [1] is 18 nM. The inhibition at 0.2 µM under setting [2] amounted to 101%.
`Cc1c(N(CCc2ccccc2)S(=O)(=O)c2ccccc2)sc2ccccc12` [Compound 104, N-(3-Methyl-benzo[b]thiophen-2-yl)-N-(phenethyl)-benzenesulfonamide]: the IC50 under setting [1] was 8.9 nM. Under setting [2], the inhibition at 0.2 µM turned out to be 98%.
In the case of `COC(=O)c1ccc(S(=O)(=O)N(CCC2CC2)c2sc3ccccc3c2C)cc1` [Compound 628, N-(2-Cyclopropyl-ethyl)-N-(3-methyl-benzo[b]thiophen-2-yl)-4-carbomethoxy-benzenesulfonamide], the IC50 under setting [1] amounted to 23.3 nM. Moreover, the inhibition at 0.2 µM under setting [2] was determined as 103%.
As to `N#Cc1cccc(S(=O)(=O)N(CCC(F)(F)F)c2cc3ccccc3s2)c1` [Compound 573, N-(Benzo[b]thiophen-2-yl)-N-(3,3,3-trifluoro-propyl)-3-cyano-benzenesulfonamide], under setting [2], the inhibition at 0.2 µM was 28%.
Regarding `O=S(=O)(c1ccc(-c2nnn[nH]2)cc1)N(Cc1ccc(F)c(C(F)(F)F)c1)c1cc2ccccc2s1` [Compound 424, N-(Benzo[b]thiophen-2-yl)-N-(4-fluoro-3-trifluoromethyl-benzyl)-4-(1H-tetrazol-5-yl)-benzenesulfonamide], the IC50 under setting [1] came to 7 nM. Besides, the inhibition at 0.2 µM under setting [2] was found to be 95%.
For the compound `CCCCN(c1sc2ccccc2c1Br)S(=O)(=O)c1ccccc1` [Compound 231, N-(3-Bromo-benzo[b]thiophen-2-yl)-N-(butyl)-benzenesulfonamide], the IC50 under setting [1] was found to be 29 nM. In addition, under setting [3], the inhibition at 0.5 µM was found to be 95%.
Take `Cc1c(N(CCCCC(F)(F)F)S(=O)(=O)c2ccc(N(C)C)nc2)sc2ccccc12` [Compound 787]: the 50% inhibitory concentration (IC50) under setting [1] came to 14.9 nM. In addition, the inhibition at 0.2 µM under setting [2] turned out to be 102%.
On to `CCCCN(c1cc2ccccc2s1)S(=O)(=O)c1ccc(C(N)=NO)cc1` [Compound 471, N-(Benzo[b]thiophen-2-yl)-N-(butyl)-4-N-hydroxy-benzamidinesulfonamide], for which, under setting [1], the IC50 came to 59 nM. Moreover, the “% Inh @ 0.2 (μM)” value under setting [4] was 97%.
As to `COc1ccc(CN(c2sc3ccccc3c2Br)S(=O)(=O)c2ccccc2)cc1Br` [Compound 165, N-(3-Bromo-benzo[b]thiophen-2-yl)-N-(3-bromo-4-methoxy-benzyl)-benzenesulfonamide], the IC50 under setting [1] amounted to 3.7 nM. In addition, the inhibition at 0.5 µM under setting [3] came out at 98%.
On to `CS(=O)(=O)Nc1ccc(S(=O)(=O)N(CCCCC(F)(F)F)c2sc3ccccc3c2Br)cc1` [Compound 680, N-(3-Bromo-benzo[b]thiophen-2-yl)-4-methanesulfonylamino-N-(5,5,5-trifluoro-pentyl)-benzenesulfonamide], for which, under setting [1], the IC50 was determined as 56.1 nM. Further, under setting [2], the inhibition at 0.2 µM amounted to 96.2%.
In the same order, the values of `Cc1c(N(Cc2ccc(OC(F)(F)F)cc2)S(=O)(=O)c2ccc(-c3nnn[nH]3)cc2)sc2ccccc12` [Compound 785, N-(3-Methyl-benzo[b]thiophen-2-yl)-N-(4-trifluoromethoxy-benzyl)-4-(1H-tetrazol-5-yl)-benzenesulfonamide] are 2.2 nM and 102%.
For `Nc1ccc(S(=O)(=O)N(CCC(F)(F)F)c2sc3ccccc3c2Br)cc1` [Compound 587, 4-Amino-N-(3-bromo-benzo[b]thiophen-2-yl)-N-(3,3,3-trifluoro-propyl)-benzenesulfonamide], in that order: 3.9 nM and 100%.
As to `Cc1c(N(Cc2ccc(F)c(C(F)(F)F)c2)S(=O)(=O)CCBr)sc2ccccc12` [Compound 797, N-(4-Fluoro-3-trifluoromethyl-benzyl)-N-(3-methyl-benzo[b]thiophen-2-yl)-2-bromo-ethane-1-sulfonamide], the inhibition at 0.2 µM (HEK293, read-out: % Inh @ 0.2 (μM)) was 102%. In addition, the IC50 (HEK293 cells stably expressing canine TRPM8, icilin activation, average of two or more determinations) came out at 4.8 nM.
`O=S(=O)(c1ccc(Cl)nc1)N(Cc1ccc(F)c(C(F)(F)F)c1)c1sc2ccccc2c1Br` [Compound 320, N-(3-Bromo-benzo[b]thiophen-2-yl)-N-(4-fluoro-3-trifluoromethyl-benzyl)-2-chloro-pyridin-5-ylsulfonamide]: under setting [1], the IC50 worked out at 10 nM. In addition, under setting [2], the inhibition at 0.2 µM is 100%.
Turning to `CCCCN(c1cc2ccccc2s1)S(=O)(=O)c1ccc(C2=NOS(=O)N2)cc1` (centres unmarked) [Compound 470, N-(Benzo[b]thiophen-2-yl)-N-(butyl)-4-(3H-[1,2,3,5]oxathiadiazole-2-oxide)-benzenesulfonamide], under setting [4], the “% Inh @ 0.2 (μM)” value is 15%.
Turning to “N-(3,4-Difluoro-benzyl)-N-thieno[3,2-b]pyridin-2-yl-benzenesulfonamide [Compound 146]”, under setting [1], the IC50 was 48 nM. Moreover, the “% Inh @ 0.5 (μM)” value under setting [3] turned out to be 97%.
In the case of `Cc1c(N(Cc2ccc(Cl)c(F)c2)S(=O)(=O)c2ccc(C(=O)O)cc2)sc2ccccc12` [Compound 521, N-(3-Methyl-benzo[b]thiophen-2-yl)-N-(4-chloro-3-fluoro-benzyl)-4-carboxy-benzenesulfonamide], under setting [1], the IC50 turned out to be 2 nM. The inhibition at 0.2 µM under setting [2] is 101%.
Consider `N#Cc1ccc(S(=O)(=O)N(Cc2ccc(F)c(C(F)(F)F)c2)c2cc3ccccc3s2)cc1` [Compound 411, N-(Benzo[b]thiophen-2-yl)-N-(4-fluoro-3-trifluoromethyl-benzyl)-4-cyano-benzenesulfonamide], for which the inhibition at 0.2 µM under setting [2] is 43%.
As to `O=S(=O)(c1ccccc1)N(Cc1ccncc1)c1sc2ccccc2c1Br` [Compound 170, N-(3-Bromo-benzo[b]thiophen-2-yl)-N-(pyridin-4-ylmethyl)-benzenesulfonamide], under setting [1], the concentration for half-maximal inhibition (IC50) was determined as 44.5 nM. Further, the inhibition at 0.5 µM under setting [3] worked out at 97%.
Turning to `O=c1[nH]c(-c2ccc(S(=O)(=O)N(CCC(F)(F)F)c3cc4ccccc4s3)cc2)ns1` [Compound 684, N-(Benzo[b]thiophen-2-yl)-N-(3,3,3-trifluoro-propyl)-4-(5-oxo-4,5-dihydro-[1,2,4]thiadiazol-3-yl)-benzenesulfonamide], the concentration for half-maximal inhibition (IC50) under setting [1] was determined as 145 nM. Moreover, the inhibition at 0.2 µM under setting [2] is 73.1%.
In the case of `CN(C)C1=C(N(CCC2CC2)S(=O)(=O)c2ccccc2)S(=O)(=O)c2ccccc21` [Compound 643, N-(2-Cyclopropylethyl)-N-(3-dimethylamino-1,1-dioxo-1H-benzo[b]thiophen-2-yl)-benzenesulfonamide], the IC50 under setting [1] turned out to be 5 nM. Under setting [2], the inhibition at 0.2 µM stood at 103%.
Regarding `CC(C)(C)OCCN(c1sc2ccccc2c1Cl)S(=O)(=O)c1ccccc1` [Compound 81, N-(2-tert-Butoxy-ethyl)-N-(3-chloro-benzo[b]thiophen-2-yl)-benzenesulfonamide], the IC50 under setting [1] amounted to 15 nM. In addition, the inhibition at 0.5 µM under setting [3] was found to be 99%.
